Values quoted from earlier work, collected in publication PMC6311893, “Computational prediction of plasma protein binding of cyclic peptides from small molecule experimental data using sparse modeling techniques” (BMC Bioinformatics, 2018).
Like-named read-outs stand apart in the source and are kept apart here.

Tested on: plasma protein
Settings: cited from earlier work
[1] = fraction bound to plasma protein, small molecule dataset, sheet 1-SM (Set Dte = test, Dtr = training), ref Ingle et al.
[2] = fraction bound to plasma protein, small molecule dataset, sheet 1-SM, Set Dtr, ref Ingle et al.
[3] = fraction bound to plasma protein, small molecule dataset, sheet 1-SM, ref Ingle et al.

## N=C(N)c1ccc(C(=O)N[C@@H](Cc2ccc(O)cc2)C(=O)N2CCC(OCC(=O)O)CC2)cc1 [Lamifiban]
[1]
  PPB (fb): 0.06

## CCNC(=O)[C@@H]1CCCN1C(=O)[C@H](CCCNC(=N)N)NC(=O)[C@H](CC(C)C)NC(=O)[C@@H](CC(C)C)NC(=O)[C@H](Cc1ccc(O)cc1)NC(=O)[C@H](CO)NC(=O)[C@H](Cc1c[nH]c2ccccc12)NC(=O)[C@H](Cc1c[nH]cn1)NC(=O)[C@@H]1CCC(=O)N1 [Leuprolide]
human, plasma
  PPB (fb): 0.46

## N[C@@H](Cc1ccc(O)c(O)c1)C(=O)O [Levodopa]
[2]
  PPB (fb): 0.12

## C#C[C@]1(O)CC[C@H]2[C@@H]3CCC4=CC(=O)CC[C@@H]4[C@H]3CC[C@@]21CC [Levonorgestrel]
[2]
  PPB (fb): 0.975

## C[C@@H]1CC(=O)NN=C1c1ccc(NN=C(C#N)C#N)cc1 [Levosimendan]
[2]
  PPB (fb): 0.98

## CCC[C@@H]1C[C@@H](C(=O)N[C@@H]([C@H]2O[C@H](SC)[C@H](O)[C@@H](O)[C@H]2O)[C@@H](C)O)N(C)C1 [Lincomycin]
[2]
  PPB (fb): 0.76

## CC(=O)NC[C@H]1CN(c2ccc(N3CCOCC3)c(F)c2)C(=O)O1 [Linezolid]
[2]
  PPB (fb): 0.31

## NCCCC[C@H](N[C@@H](CCc1ccccc1)C(=O)O)C(=O)N1CCC[C@H]1C(=O)O [Lisinopril]
[2]
  PPB (fb): 0.05

## O=C([O-])[O-].[Li+].[Li+] [Lithium Carbonate]
plasma
  PPB (fb): 0

## O=C1Nc2ccc(Cl)cc2C(c2ccccc2Cl)=NC1O (stereo not shown) [Lorazepam]
plasma
  PPB (fb): 0.91

## CN1C(=O)C(O)N=C(c2ccccc2Cl)c2cc(Cl)ccc21 (stereo not shown) [Lormetazepam]
plasma
  PPB (fb): 0.86

## CCCCc1nc(Cl)c(CO)n1Cc1ccc(-c2ccccc2-c2nn[nH]n2)cc1 [Losartan]
[2]
  PPB (fb): 0.99

## CNCCCC12CCC(c3ccccc31)c1ccccc12 [Maprotiline]
[1]
  PPB (fb): 0.89

## COC(=O)Nc1nc2ccc(C(=O)c3ccccc3)cc2[nH]1 [Mebendazole]
[2]
  PPB (fb): 0.93

## N=C(N)c1ccc(CNC(=O)[C@@H]2CCN2C(=O)[C@H](NCC(=O)O)C2CCCCC2)cc1 [Melagatran]
[2]
  PPB (fb): 0.07

## N[C@@H](Cc1ccc(N(CCCl)CCCl)cc1)C(=O)O [Melphalan]
plasma
  PPB (fb): 0.88

## CC12CC3CC(C)(C1)CC(N)(C3)C2 [Memantine]
[3]
  PPB (fb): 0.45

## CCOC(=O)C1(c2ccccc2)CCN(C)CC1 [Meperidine]
plasma
  PPB (fb): 0.58

## Cc1cccc(C)c1NC(=O)C1CCCCN1C (stereo not shown) [Mepivacaine]
[1]
  PPB (fb): 0.77

## CCCC(C)(COC(N)=O)COC(N)=O [Meprobamate]
plasma
  PPB (fb): 0.1

## CCC1(c2cccc(O)c2)CCCCN(C)C1 (stereo not shown) [Meptazinol]
plasma
  PPB (fb): 0.27

## Sc1ncnc2nc[nH]c12 [Mercaptopurine]
[1]
  PPB (fb): 0.17

## C[C@@H](O)[C@H]1C(=O)N2C(C(=O)O)=C(S[C@@H]3CN[C@H](C(=O)N(C)C)C3)[C@H](C)[C@H]12 [Meropenem]
[2]
  PPB (fb): 0.08

## CCC(=O)C(CC(C)N(C)C)(c1ccccc1)c1ccccc1 (stereo not shown) [Methadone]
plasma
  PPB (fb): 0.84

## CN[C@@H](C)Cc1ccccc1 [Methamphetamine]
plasma
  PPB (fb): 0.15

## COc1cccc(OC)c1C(=O)N[C@@H]1C(=O)N2[C@@H]1SC(C)(C)[C@@H]2C(=O)O [Methicillin]
[2]
  PPB (fb): 0.48

## C=CCC1(C(C)C#CCC)C(=O)N=C(O)N(C)C1=O (stereo not shown) [Methohexital]
plasma
  PPB (fb): 0.75

## CN(Cc1cnc2nc(N)nc(N)c2n1)c1ccc(C(=O)N[C@@H](CCC(=O)O)C(=O)O)cc1 [Methotrexate]
[2]
  PPB (fb): 0.58

## C[C@](N)(Cc1ccc(O)c(O)c1)C(=O)O [Methyldopa]
[1]
  PPB (fb): 0.13

## COC(=O)C(c1ccccc1)C1CCCCN1 (stereo not shown) [Methylphenidate]
plasma
  PPB (fb): 0.18

## CCN(CC)CCNC(=O)c1cc(Cl)c(N)cc1OC [Metoclopramide]
[1]
  PPB (fb): 0.37

## COc1ccc2cc1Oc1cc3c(cc1OC)CC[N+](C)(C)[C@H]3Cc1ccc(cc1)Oc1c(OC)c(OC)cc3c1[C@@H](C2)[N+](C)(C)CC3 [Metocurine]
plasma
  PPB (fb): 0.35

## Cc1ccccc1N1C(=O)c2cc(S(N)(=O)=O)c(Cl)cc2NC1C (stereo not shown) [Metolazone]
[2]
  PPB (fb): 0.95

## COCCc1ccc(OCC(O)CNC(C)C)cc1 (stereo not shown) [Metoprolol]
[1]
  PPB (fb): 0.11

## CC(=O)Nc1c(I)c(C(=O)O)c(I)c(N(C)C(C)=O)c1I [Metrizoate]
[2]
  PPB (fb): 0

## Cc1ncc([N+](=O)[O-])n1CCO [Metronidazole]
[1]
  PPB (fb): 0.07

## Cc1cccc(C)c1OCC(C)N (stereo not shown) [Mexiletine]
[2]
  PPB (fb): 0.63

## CC1(C)S[C@@H]2[C@H](NC(=O)[C@H](NC(=O)N3CCN(S(C)(=O)=O)C3=O)c3ccccc3)C(=O)N2[C@H]1C(=O)O [Mezlocillin]
[2]
  PPB (fb): 0.31

## COCC(=O)O[C@]1(CCN(C)CCCc2nc3ccccc3[nH]2)CCc2cc(F)ccc2[C@@H]1C(C)C [Mibefradil]
[1]
  PPB (fb): 0.99

## Cc1ncc2n1-c1ccc(Cl)cc1C(c1ccccc1F)=NC2 [Midazolam]
plasma
  PPB (fb): 0.97

## CCCCN1C[C@H](O)[C@@H](O)[C@H](O)[C@H]1CO [Miglustat]
[3]
  PPB (fb): 0.01

## Cc1[nH]c(=O)c(C#N)cc1-c1ccncc1 [Milrinone]
[2]
  PPB (fb): 0.85

## O=C1c2c(O)ccc(O)c2C(=O)c2c(NCCNCCO)ccc(NCCNCCO)c21 [Mitoxantrone]
[1]
  PPB (fb): 0.8

## COc1cc2c(cc1OC)[C@@H](Cc1cc(OC)c(OC)c(OC)c1)[N+](C)(CCCOC(=O)CC/C=C/CCC(=O)OCCC[N+]1(C)CCc3cc(OC)c(OC)cc3[C@H]1Cc1cc(OC)c(OC)c(OC)c1)CC2 (stereo partly shown) [Mivacurium]
[2]
  PPB (fb): 0.3

## O=C(NCCN1CCOCC1)c1ccc(Cl)cc1 [Moclobemide]
[2]
  PPB (fb): 0.36

## CC(C)(O)c1ccccc1CC[C@@H](SCC1(CC(=O)O)CC1)c1cccc(/C=C/c2ccc3ccc(Cl)cc3n2)c1 [Montelukast]
[1]
  PPB (fb): 0.99

## CO[C@@]1(NC(=O)C(C(=O)O)c2ccc(O)cc2)C(=O)N2C(C(=O)O)=C(CSc3nnnn3C)CO[C@@H]21 (stereo partly shown) [Moxalactam]
[2]
  PPB (fb): 0.53

## COc1c(N2C[C@@H]3CCCN[C@@H]3C2)c(F)cc2c(=O)c(C(=O)O)cn(C3CC3)c12 [Moxifloxacin]
[2]
  PPB (fb): 0.45

## CC(=O)Oc1cc(C(C)C)c(OCCN(C)C)cc1C [Moxisylyte]
[3]
  PPB (fb): 0.26

## COc1nc(C)nc(Cl)c1N=C1NCCN1 [Moxonidine]
[2]
  PPB (fb): 0.06

## COc1c(C)c2c(c(O)c1C/C=C(\C)CCC(=O)OCCN1CCOCC1)C(=O)OC2 [Mycophenolate mofetil]
[3]
  PPB (fb): 0.97

## Cc1ccc(NC(=O)c2ccc(CN3CCNCC3)cc2)cc1Nc1nccc(-c2cccnc2)n1 [N-desmethyl-imatinib]
[1]
  PPB (fb): 0.7

## CCOc1ccc2ccccc2c1C(=O)N[C@@H]1C(=O)N2[C@@H]1SC(C)(C)[C@@H]2C(=O)O [Nafcillin]
[1]
  PPB (fb): 0.88

## C=C1CC[C@@]2(O)[C@H]3Cc4ccc(O)c5c4[C@@]2(CCN3CC2CC2)[C@H]1O5 [Nalmefene]
[2]
  PPB (fb): 0.36

## C=CCN1CC[C@]23c4c5ccc(O)c4O[C@H]2C(=O)CC[C@@]3(O)[C@H]1C5 [Naloxone]
[2]
  PPB (fb): 0.45

## O=C1CC[C@@]2(O)[C@H]3Cc4ccc(O)c5c4[C@@]2(CCN3CC2CC2)[C@H]1O5 [Naltrexone]
[2]
  PPB (fb): 0.2

## CNS(=O)(=O)CCc1ccc2[nH]cc(C3CCN(C)CC3)c2c1 [Naratriptan]
[1]
  PPB (fb): 0.29

## CC(C)[C@H]1CC[C@H](C(=O)N[C@H](Cc2ccccc2)C(=O)O)CC1 [Nateglinide]
[2]
  PPB (fb): 0.98

## CCc1nn(CCCN2CCN(c3cccc(Cl)c3)CC2)c(=O)n1CCOc1ccccc1 [Nefazodone]
[2]
  PPB (fb): 0.99

## COc1nc(N)nc2c1ncn2[C@@H]1O[C@H](CO)[C@@H](O)[C@@H]1O [Nelarabine]
[2]
  PPB (fb): 0.2

## CCN[C@@H]1C[C@H](N)[C@@H](O[C@H]2OC(CN)=CC[C@H]2N)[C@H](O)[C@H]1O[C@H]1OC[C@](C)(O)[C@H](NC)[C@H]1O [Netilmicin]
[1]
  PPB (fb): 0.05

## Cc1ccnc2c1NC(=O)c1cccnc1N2C1CC1 [Nevirapine]
[2]
  PPB (fb): 0.64

## CN1CCC[C@H]1c1cccnc1 [Nicotine]
plasma
  PPB (fb): 0.05

## O=C1CN=C(c2ccccc2)c2cc([N+](=O)[O-])ccc2N1 [Nitrazepam]
plasma
  PPB (fb): 0.87

## O=C1CN(/N=C/c2ccc([N+](=O)[O-])o2)C(=O)N1 [Nitrofurantoin]
[2]
  PPB (fb): 0.73

## CNC(=C[N+](=O)[O-])NCCSCc1csc(CN(C)C)n1 [Nizatidine]
[2]
  PPB (fb): 0.32

## CN1Cc2c(N)cccc2C(c2ccccc2)C1 (stereo not shown) [Nomifensine]
[2]
  PPB (fb): 0.63

## CNCCC=C1c2ccccc2CCc2ccccc21 [Nortriptyline]
[2]
  PPB (fb): 0.91

## CO[C@@H]1[C@@H](OC(N)=O)[C@@H](O)[C@H](Oc2ccc3c(O)c(NC(=O)c4ccc(O)c(CC=C(C)C)c4)c(=O)oc3c2C)OC1(C)C [Novobiocin]
[3]
  PPB (fb): 0.9

## CN(C)CC(c1ccc(O)cc1)C1(O)CCCCC1 (stereo not shown) [O-desmethylvenlafaxine]
[3]
  PPB (fb): 0.3

## CCCc1nc(C(C)(C)O)c(C(=O)O)n1Cc1ccc(-c2ccccc2-c2nnn[nH]2)cc1 [Olmesartan]
[3]
  PPB (fb): 0.99

## COc1ccc2[nH]c([S+]([O-])Cc3ncc(C)c(OC)c3C)nc2c1 (stereo not shown) [Omeprazole]
[1]
  PPB (fb): 0.96

## Cc1nccn1CC1CCc2c(c3ccccc3n2C)C1=O (stereo not shown) [Ondansetron]
[2]
  PPB (fb): 0.73

## Cc1onc(-c2ccccc2)c1C(=O)N[C@@H]1C(=O)N2[C@@H]1SC(C)(C)[C@@H]2C(=O)O [Oxacillin]
[2]
  PPB (fb): 0.92

## COc1ccc2c3c1O[C@H]1C(=O)CC[C@@]4(O)[C@@H](C2)N(C)CC[C@]314 [Oxycodone]
plasma
  PPB (fb): 0.45

## CC(=O)O[C@H]1C(=O)[C@@]2(C)[C@H]([C@H](OC(=O)c3ccccc3)[C@]3(O)C[C@H](OC(=O)[C@H](O)[C@@H](NC(=O)c4ccccc4)c4ccccc4)C(C)=C1C3(C)C)[C@]1(OC(C)=O)CO[C@@H]1C[C@@H]2O [Paclitaxel]
[2]
  PPB (fb): 0.76

## O=C1c2cccc3c2[C@H](CCC3)CN1[C@@H]1CN2CCC1CC2 [Palonosetron]
[2]
  PPB (fb): 0.62

## COc1ccnc(C[S+]([O-])c2nc3ccc(OC(F)F)cc3[nH]2)c1OC (stereo not shown) [Pantoprazole]
[2]
  PPB (fb): 0.98

## COc1ccc(Cc2nccc3cc(OC)c(OC)cc23)cc1OC [Papaverine]
plasma
  PPB (fb): 0.9
